Laboratory results published in PMC9502701 (Molecules, 2022).

Molecular target: neuraminidase (NA) (Influenza A virus, UniProt Q6DPL2)
Type: biochemical
Settings: for Inhibition Rate (%): 100 μg/mL standard compounds; for IC50: standard compounds

Chain of neuraminidase (NA) (Q6DPL2 whole entry, looked up): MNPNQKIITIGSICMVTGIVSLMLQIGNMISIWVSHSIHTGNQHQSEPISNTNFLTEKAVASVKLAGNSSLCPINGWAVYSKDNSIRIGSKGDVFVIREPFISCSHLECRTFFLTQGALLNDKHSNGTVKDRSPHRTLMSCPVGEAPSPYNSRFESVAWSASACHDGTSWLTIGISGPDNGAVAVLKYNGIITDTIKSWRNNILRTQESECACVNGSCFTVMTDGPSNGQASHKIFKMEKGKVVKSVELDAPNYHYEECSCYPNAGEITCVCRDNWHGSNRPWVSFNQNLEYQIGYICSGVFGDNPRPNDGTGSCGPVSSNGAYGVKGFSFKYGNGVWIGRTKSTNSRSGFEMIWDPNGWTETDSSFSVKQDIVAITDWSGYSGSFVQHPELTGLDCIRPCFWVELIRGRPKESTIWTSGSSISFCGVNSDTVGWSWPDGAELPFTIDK

Row | Structure (SMILES) | Inhibition Rate (%) | IC50 [µM]
1 | O=C(/C=C/c1ccc(O)c(O)c1)O[C@@H]1[C@H](O)C[C@@](O)(C(=O)O)C[C@H]1OC(=O)/C=C/c1ccc(O)c(O)c1 [4,5-Di-O-caffeoylquinic acid] | 75.90 | 132
2 | O=C(/C=C/c1ccc(O)c(O)c1)O[C@H]1[C@H](O)C[C@](O)(C(=O)O)C[C@H]1O [Cryptochlorogenic acid, cryptochlorogenic acid] | 54.89 | 290
3 | O=C(/C=C/c1ccc(O)c(O)c1)O[C@@H]1C[C@@](O)(C(=O)O)C[C@@H](O)[C@@H]1O [Neochlorogenic acid, neochlorogenic acid] | 76.00 | 157
4 | C=C[C@H]1[C@H](O[C@@H]2O[C@H](CO)[C@@H](O)[C@H](O)[C@H]2O)OC=C(C(=O)OC)[C@H]1CC(=O)O [Secoxyloganin, secoxyloganin] | 37.74 | –
